Read-outs that look alike come from different tables or passages of the source.
System: HeLa cells
Assay: HeLa cell 24 hr ploidy assay (DNA content)
Format: cell-based
Conditions: average, read-out: 24h_4NPloidy EC50_IP (uM Avg)
Protocol: HeLa cell 24 hr ploidy assay protocol
The purpose of this assay is to evaluate the ability of selected individual compounds to induce Deoxyribonucleic acid (DNA) content (ploidy) in cells through failed cell division. Cell cycle analysis is a rapid and efficient way to evaluate the status of DNA content (ploidy) of a given cell. HeLa cells (1×10^4 HeLa cells/well) in 100 ul of media (MEM+10% FBS) were plated in 96-well plates (Packard View) and cultured for 24 hrs at 37° C. maintained in a 5% CO2 atmosphere. […] The compounds were serially diluted in DMSO (0.25% final concentration). The cells were fixed (3.7% Formaldehyde and 1% glutaraldehyde) and permeabilized (1×PBS with 1% BSA and 0.2% Triton X-100) in preparation for nuclear staining. The well plates were stained for 45 minutes at RT in the dark using Hoechest 33342 nuclear stain at 0.5 ug.ml (Stock of 10 mg/ml, Invitrogen, CA, Cat #H3570). The nuclear stain was removed by aspiration and the cells were washed with wash buffer. A Cellomics Array Scan Vti plate reader was used to acquire the DNA ploidy data of the cells using Cell Cycle bioapplication. Numbers for each of “valid cell count/well”, “% of 4N cells” and “% of >4Ncells” were calculated with the assistance of an Activity Base 5.1ca software and dose curves were generated using an XLFit software. With XLFit, final EC50 IP and EC50 transit values, as well as the Max and Min, were calculated for each curve.

[1] = Homo sapiens, HeLa, HeLa cells, 4N ploidy

Compound | EC50 [1] [µM] | other results
CN1CCN(c2nnc(Nc3ccc(Oc4ccnc5cc(C#N)ccc45)cc3)c3ccccc23)CC1 [compound 94] | – | EC50 (Homo sapiens, HeLa, 4N ploidy): 0.09 µM
COc1cc(F)cc2nccc(Oc3ccc(Nc4nnc(-c5ccc(Cl)cc5)c5ccccc45)cc3)c12 [compound 437] | 0.005 | –
COc1ccc2nccc(Sc3ccc(Nc4nnc(-c5ccc(Cl)cc5)c5ccccc45)cc3)c2c1 [compound 315, 4-(4-chlorophenyl)-N-(4-(6-methoxyquinolin-4-ylthio)phenyl)phthalazin-1-amine] | 0.014 | –
COc1ccc2c(C(O)c3ccc(Nc4nnc(-c5ccc(Cl)cc5)c5ccccc45)cc3)ccnc2c1 (stereo not shown) [compound 614] | – | EC50 (Homo sapiens, HeLa, HeLa cells): 0.053 µM
Cc1cc2nccc(Sc3ccc(Nc4nnc(-c5ccc(Cl)cn5)c5ccccc45)cc3)c2s1 [compound 560] | 0.023 | –
Clc1ccc(-c2nnc(Nc3ccc(CN4CCOc5ccccc54)cc3)c3ccccc23)cc1 [compound 349] | > 1.2 | –
FC1(F)Oc2ccc(-c3nnc(Nc4ccc(Sc5ccnc6cccnc56)cc4)c4ccccc34)cc2O1 [compound 444] | 0.024 | –
COc1cnc2c(Sc3ccc(Nc4nnc(-c5ccc(C)nc5)c5ccccc45)cc3)ccnc2c1 [compound 588] | 0.004 | –
COc1cnc2c(Oc3ccc(Nc4nnc(-c5ccc6c(c5)OCCN6C)c5ccccc45)cc3)ccnc2c1 [compound 157] | – | EC50 (Homo sapiens, HeLa, 4N ploidy): 0.028 µM
N#Cc1cc2nccc(Sc3ccc(Nc4nnc(-c5ccc6c(c5)OCO6)c5ccccc45)cc3)c2s1 [compound 457] | 0.021 | –
COc1cc2nccc(Oc3ccc(Nc4nnc(-c5cccc(C)n5)c5ccccc45)cn3)c2cn1 [compound 127] | – | EC50 (Homo sapiens, HeLa, 4N ploidy): > 1.2 µM
FC(F)(F)Oc1ccc2nccc(Sc3ccc(Nc4nnc(-c5ccccc5)c5ccccc45)cc3)c2c1 [compound 571] | 0.06 | –
Clc1ccc(-c2nnc(Nc3ccc(Sc4ccnc5cccnc45)cc3)c3ccccc23)cc1 [compound 308] | – | EC50 (HeLa cells, 4N ploidy): 0.006 µM
COc1cnc2c(Sc3ccc(Nc4nnc(N5CCn6ncnc6C5)c5ccccc45)cc3)ccnc2c1 [compound 579] | 0.054 | –
Clc1ccc(-c2nnc(Nc3ccc(Oc4ccnc5cccnc45)cc3)c3ccccc23)cc1 [compound 448] | 0.016 | –
Cc1csc(-c2nnc(Nc3ccc(Sc4ccnc5cccnc45)cc3)c3ccccc23)c1 [compound 336] | 0.001 | –
COc1cnc2c(Oc3ccc(Nc4nnc(C#CC(C)(C)C)c5ccccc45)cc3)ccnc2c1 [Example 31, 4-(3,3-dimethylbut-1-ynyl)-N-(4-(7-methoxy-1,5-naphthyridin-4-yloxy)phenyl)phthalazin-1-amine] | 0.045 | –
COc1cc2nncc(Oc3ccc(Nc4nnc(-c5ccccc5)c5ccccc45)cc3)c2cc1OC [compound 254] | > 1.2 | –
FC(F)(F)Oc1ccc2c(Sc3ccc(Nc4nnc(-c5ccccc5)c5ccccc45)cc3)ccnc2c1 [compound 497] | 0.079 | –
COc1ccc2c(Oc3ccc(Nc4nnc(-c5cc(C)ccn5)c5ccccc45)cc3)ccnc2c1 [compound 118] | – | EC50 (Homo sapiens, HeLa, 4N ploidy): 0.11 µM

Compound | EC50 [1] [µM] | other results
N#Cc1ccc2c(Oc3ccc(Nc4nnc(-c5ccccc5)c5ccccc45)cn3)ccnc2c1 [compound 174] | ≥ 1.2 | –
N#Cc1cc2nccc(Sc3ccc(Nc4nnc(-c5ccc(Cl)cc5)c5ccccc45)cc3)c2o1 [compound 489] | 0.017 | –
COc1cnc2c(Oc3ccc(Nc4nnc(-c5ncc(C)s5)c5ccccc45)cc3)ccnc2c1 [compound 189] | 0.191 | –
COc1cnc2c(Oc3ccc(Nc4nnc(-c5ccc(Cl)c(Cl)c5)c5ccccc45)cc3)ccnc2c1 [compound 201, 4-(3,4-dichlorophenyl)-N-(4-((7-(methyloxy)-1,5-naphthyridin-4-yl)oxy)phenyl)-1-phthalazinamine] | 0.022 | –
COc1cnc2c(Sc3ccc(Nc4nnc(N5CCC(C(F)(F)F)CC5)c5ccccc45)cc3)ccnc2c1 [compound 523] | 0.006 | –
COc1cnc2c(Sc3ccc(Nc4nnc(-c5ccc(C)c(OC)c5)c5ccccc45)cc3)ccnc2c1 [compound 529] | 0.006 | –
COc1cc(OC)c2c(Sc3ccc(Nc4nnc(-c5ccc(Cl)cc5)c5ccccc45)cc3)ccnc2c1 [compound 436] | 0.049 | –
FC(F)(F)Oc1ccc2c(Oc3ccc(Nc4nnc(-c5ccc(Cl)cc5)c5ccccc45)cc3)ccnc2c1 [compound 498] | 0.078 | –
COc1cc2nccc(Oc3ccc(Nc4nnc(-c5ccc(C)c(C)c5)c5ccccc45)cc3)c2cc1OC [compound 74] | – | EC50 (Homo sapiens, HeLa, 4N ploidy): 0.018 µM
COc1cnc2c(Oc3ccc(Nc4nnc(-c5ccc(F)c(F)c5)c5ccccc45)cc3)ccnc2c1 [compound 214] | 0.033 | –
COc1ccccc1-c1nnc(Nc2ccc(Oc3ccnc4cc(C#N)ccc34)cc2)c2ccccc12 [compound 119] | – | EC50 (Homo sapiens, HeLa, 4N ploidy): > 1.2 µM
N#Cc1ccc2c(Oc3ccc(Nc4nnc(-c5ccc(C(F)(F)F)cc5)c5ccccc45)cc3)ccnc2c1 [compound 147, 4-((4-((4-(4-(trifluoromethyl)phenyl)-1-phthalazinyl)amino)phenyl)oxy)-7-quinolinecarbonitrile] | – | EC50 (Homo sapiens, HeLa, 4N ploidy): 0.02 µM
c1ccc(-c2nnc(Nc3ccc(Sc4ccnc5ccccc45)cc3)c3ccccc23)cc1 [compound 310] | 0.011 | –
COc1cnc2c(Sc3ccc(Nc4nnc(N5CCCCC5)c5ccccc45)cc3)ccnc2c1 [compound 346] | 0.016 | –
CCc1cc(-c2ccc(C)cc2)nnc1Nc1ccc(Oc2ccnc3cc(OC)cnc23)cc1 [compound 199] | 0.018 | –
COc1cc2nccc(Oc3ccc(Nc4nnc(-c5ccccc5)c5ccccc45)cc3)c2cc1C(N)=O [compound 225] | 0.004 | –
CS(=O)(=O)CCOc1ccc2nccc(Sc3ccc(Nc4nnc(-c5ccc(Cl)cc5)c5ccccc45)cc3)c2c1 [Example 390, 4-(4-Chlorophenyl)-N-(4-(6-(2-(methylsulfonyl)ethoxy)quinolin-4-ylthio)phenyl) phthalazin-1-amine] | > 1.2 | –
c1ccc(-c2nnc(Nc3ccc(Sc4ncnc5ccccc45)cc3)c3ccccc23)cc1 [compound 561] | > 1.2 | –
COc1cnc2c(Sc3ccc(Nc4nnc(N5CCC(Cl)CC5)c5ccccc45)cc3)ccnc2c1 [compound 527] | 0.004 | –
CCc1cc(-c2ccccc2OC)nnc1Nc1ccc(Sc2ccnc3cc(OC)cnc23)cc1 [compound 609] | – | EC50 (Homo sapiens, HeLa, HeLa cells): 0.055 µM

Compound | EC50 [1] [µM] | other results
COc1cnc2c(Oc3ccc(Nc4nnc(-c5cc(C)cs5)c5ccccc45)cc3)ccnc2c1 [compound 152] | – | EC50 (Homo sapiens, HeLa, 4N ploidy): 0.009 µM
COc1cnc2c(Oc3ccc(Nc4nnc(-c5cc(F)cc(F)c5)c5ccccc45)cc3)ccnc2c1 [compound 539] | 0.081 | –
COc1cnc2c(Sc3ccc(Nc4nnc(NCCCSC)c5ccccc45)cc3)ccnc2c1 [compound 508] | 0.072 | –
c1ccc(-c2nnc(Nc3ccc(Sc4ccnc5[nH]ccc45)cc3)c3ccccc23)cc1 [compound 329] | 0.057 | –
COc1cc2ncnc(Sc3ccc(Nc4nnc(-c5ccc(Cl)cc5)c5ccccc45)cc3)c2cc1OC [compound 418] | 0.004 | –
Clc1ccc(-c2nnc(Nc3ccc(Oc4ncnc5ccccc45)cc3)c3ccccc23)cc1 [compound 562] | 0.026 | –
COc1cc2nccc(Oc3ccc(Nc4nnc(-c5ccccc5)c5ccccc45)cc3)c2cc1C#N [Example 392, 7-Methoxy-4-(4-(4-phenylphthalazin-1-ylamino)phenoxy)quinoline-6-carbonitrile] | 0.085 | –
COc1ccc2ncnc(Oc3ccc(Nc4nnc(-c5cc(C)cs5)c5ccccc45)cc3)c2c1 [compound 565] | 0.03 | –
COc1cnc2c(Oc3ccc(Nc4nnc(N5CCSCC5)c5ccccc45)cc3)ccnc2c1 [compound 337] | 0.229 | –
COc1cc2nccc(Oc3ccc(Nc4nnc(-c5ccccc5)c5ccccc45)cc3)c2cn1 [compound 96, N-(4-((7-(methyloxy)-1,6-naphthyridin-4-yl)oxy)phenyl)-4-phenyl-1-phthalazinamine] | – | EC50 (Homo sapiens, HeLa, 4N ploidy): 0.063 µM
Clc1ccc(-c2nnc(Nc3ccc(Oc4ccnc5cc(OCc6ccccc6)cnc45)cc3)c3ccccc23)cc1 [compound 610] | – | EC50 (Homo sapiens, HeLa, HeLa cells): 0.014 µM
COc1cccc(-c2nnc(Nc3ccc(Sc4ccnc5ccccc45)cc3)c3ccccc23)n1 [compound 327] | 0.017 | –
Fc1ccc2c(Oc3ccc(Nc4nnc(-c5ccc(Cl)cc5)c5ccccc45)cc3)ccnc2c1 [compound 455] | 0.008 | –
COc1cnc2c(Oc3ccc(Nc4nnc(-c5ccc(Cl)cc5OC)c5ccccc45)cc3)ccnc2c1 [compound 253] | 0.835 | –
Cc1ccc(-c2ccc3c(Oc4ccc(Nc5nnc(-c6ccccc6)c6ccccc56)cc4)ccnc3c2)o1 [compound 344] | 0.044 | –
c1ccc(-c2nnc(Nc3ccc(Sc4ccnc5ccsc45)cc3)c3ccccc23)cc1 [compound 355] | 0.015 | –
c1ccc(-c2nnc(Nc3ccc(Sc4ccnc5[nH]cnc45)cc3)c3ccccc23)cc1 [compound 362] | 0.105 | –
NC(=O)c1cc2nccc(Oc3ccc(Nc4nnc(-c5ccccc5)c5ccccc45)cc3)c2s1 [Example 46, 7-(4-(4-phenylphthalazin-1-ylamino)phenoxy)thieno[3,2-b]pyridine-2-carboxamide] | – | EC50 (Homo sapiens, HeLa, 4N ploidy): 0.171 µM
